Publication PMC10600239, “Selective MCL-1 inhibitor ABBV-467 is efficacious in tumor models but is associated with cardiac troponin increases in patients” (Communications Medicine, 2023)
Several values for one entry are separate records, joined by “and”; a condition that tells them apart may be missing. Equal values may be shown once.

Test system: MV4-11-Red.Fluc
Test: Systemic MV4-11-Red.Fluc model (bioluminescence, total flux)
Type: in vivo, mouse
Method: All animal studies were conducted in accordance with the guidelines approved by the Institutional Animal Care and Use Committees of AbbVie. The research protocol was approved by In Vivo Pharmacology at AbbVie prior to study initiation but was not publicly registered or disclosed. Female C.B-17 SCID-beige mice (AMO-1, OPM-2, NCI-H929, and OCI-AML2 xenografts) and female NSG mice (MV4-11-Red.Fluc systemic) were purchased from Charles River Laboratories (Wilmington, MA). Animals were housed in a light cycle-controlled room with HEPA filtration at 22 °C. Animals had nesting and climbing cage topper as the primary environmental enrichment. Animals were inoculated subcutaneously in the right flank with 5 × 10^6 (AMO-1, OPM-2, NCI-H929, and OCI-AML2) or intravenous (IV) with 5 × 10^6 (MV4-11-Red.Fluc). The inoculation volume (0.2 mL) comprised a 50:50 mixture of cells in growth media and Matrigel (BD Biosciences) for subcutaneous injections and 100% phosphate-buffered saline for IV administration. All cell lines used in this publication were authenticated using IDEXX for STR profiling as well as their IMPACT and human IMPACT panels for pathogen screening. Electronic calipers were used to measure the length and width of each tumor 2 to 3 times per week. Tumor volume was estimated by applying the following equation: volume = length × width^2/2. All groups remained blinded during measurements and dosing; only veterinary staff were aware of group identity. When tumors reached approximately 200 mm^3, mice were randomized by match and distributed into treatment and control groups. All xenograft trials were conducted using 5 to 10 mice per group, and all mice were ear tagged and monitored individually throughout the studies. Any animal with a tumor above 2000 mm^3 or 15% loss in body weight was euthanized and removed from the study. Tumor burden in the systemic MV4-11-Red.Fluc experiment was measured using an IVIS® spectrum from PerkinElmer by taking the total photon flux of the entire dorsal side of an individual mouse. Ten minutes prior to imaging, animals received intraperitoneally 0.2 mL of a 15-mg/mL solution of D-Luciferin (PerkinElmer, Catalog #122799) formulated in 100% phosphate-buffered saline. Animals were anesthetized using 3.5% isoflurane and maintained using 2%. Six days after inoculation, animals were imaged and randomized into vehicle and treatment groups at a total flux of ~1 × 10^8. A background control mouse that was tumor naive but received D-Luciferin was placed in the upper left corner of each image. The total flux from this animal was subtracted from the total flux of each animal present in the image. […]

[1] = Day 10, individual mice (ROI 2-10), listed as ABT-199
[2] = Day 13, individual mice (ROI 2-10), listed as ABT-199
[3] = Day 17, individual mice (ROI 2-10), listed as ABT-199
[4] = Day 20, individual mice (ROI 2-10), listed as ABT-199
[5] = Day 24, individual mice (ROI 2-10), listed as ABT-199
[6] = Day 31, individual mice (ROI 2-10), listed as ABT-199

CC1(C)CCC(CN2CCN(c3ccc(C(=O)NS(=O)(=O)c4ccc(NCC5CCOCC5)c([N+](=O)[O-])c4)c(Oc4cnc5[nH]ccc5c4)c3)CC2)=C(c2ccc(Cl)cc2)C1 [venetoclax]
antitumor activity (50 mg/kg for 21 days, PO): no antitumor activity
Total Flux (648 h): 2.48E+10 p/s
Total Flux minus ROI 1 (background) (648 h): 2.48E+10 p/s
Total Flux [p/s] [1]: 3.06E+08 p/s and 5.81E+08 p/s and 2.31E+08 p/s and 9.72E+08 p/s and 7.29E+08 p/s and 4.72E+08 p/s and 3.55E+08 p/s and 4.65E+08 p/s and 4.49E+08 p/s
Total flux minus background control mouse (ROI 1) [1]: 3.02E+08 p/s and 5.77E+08 p/s and 2.27E+08 p/s and 9.68E+08 p/s and 7.24E+08 p/s and 4.68E+08 p/s and 3.50E+08 p/s and 4.61E+08 p/s and 4.45E+08 p/s
Total Flux [p/s] [2]: 1.30E+09 p/s and 1.10E+09 p/s and 6.50E+08 p/s and 9.71E+08 p/s and 1.65E+09 p/s and 8.95E+08 p/s and 8.72E+08 p/s and 1.18E+09 p/s and 1.23E+09 p/s
Total flux minus background control mouse (ROI 1) [2]: 1.29E+09 p/s and 1.09E+09 p/s and 6.41E+08 p/s and 9.63E+08 p/s and 1.64E+09 p/s and 8.87E+08 p/s and 8.64E+08 p/s and 1.18E+09 p/s and 1.22E+09 p/s
Total Flux [p/s] [3]: 3.56E+09 p/s and 4.83E+09 p/s and 3.68E+09 p/s and 6.21E+09 p/s and 6.82E+09 p/s and 2.69E+09 p/s and 4.42E+09 p/s and 4.69E+09 p/s and 4.88E+09 p/s
Total flux minus background control mouse (ROI 1) [3]: 3.54E+09 p/s and 4.80E+09 p/s and 3.65E+09 p/s and 6.19E+09 p/s and 6.79E+09 p/s and 2.67E+09 p/s and 4.40E+09 p/s and 4.67E+09 p/s and 4.85E+09 p/s
Total Flux [p/s] [4]: 8.57E+09 p/s and 1.38E+10 p/s and 5.34E+09 p/s and 1.24E+10 p/s and 6.94E+09 p/s and 6.64E+09 p/s and 8.48E+09 p/s and 1.02E+10 p/s and 9.62E+09 p/s
Total flux minus background control mouse (ROI 1) [4]: 8.51E+09 p/s and 1.38E+10 p/s and 5.28E+09 p/s and 1.23E+10 p/s and 6.88E+09 p/s and 6.58E+09 p/s and 8.42E+09 p/s and 1.02E+10 p/s and 9.56E+09 p/s
Total Flux [p/s] [5]: 9.23E+09 p/s and 1.74E+10 p/s and 6.63E+09 p/s and 2.32E+10 p/s and 2.87E+10 p/s and 1.25E+10 p/s and 1.47E+10 p/s and 1.56E+10 p/s and 1.06E+10 p/s
Total flux minus background control mouse (ROI 1) [5]: 9.16E+09 p/s and 1.73E+10 p/s and 6.56E+09 p/s and 2.31E+10 p/s and 2.87E+10 p/s and 1.24E+10 p/s and 1.46E+10 p/s and 1.55E+10 p/s and 1.06E+10 p/s
Total Flux minus ROI 1 (background) (Day 27, individual ROI (one per animal), background-subtracted, listed as ABT-199): 2.02E+10 p/s and 1.49E+10 p/s and 4.29E+10 p/s and 4.73E+10 p/s and 2.09E+10 p/s and 3.23E+10 p/s and 1.93E+10 p/s and 2.82E+10 p/s
Total Flux (Day 27, individual ROI (one per animal, ROI 2-10), raw value, listed as ABT-199): 2.04E+10 p/s and 1.50E+10 p/s and 4.31E+10 p/s and 4.74E+10 p/s and 2.11E+10 p/s and 3.24E+10 p/s and 1.94E+10 p/s and 2.84E+10 p/s
Total Flux [p/s] [6]: 3.95E+10 p/s and 4.22E+10 p/s and 3.73E+10 p/s and 1.10E+11 p/s and 6.34E+10 p/s and 6.46E+10 p/s and 6.17E+10 p/s and 4.73E+10 p/s and 4.87E+10 p/s
Total flux minus background control mouse (ROI 1) [6]: 3.92E+10 p/s and 4.19E+10 p/s and 3.70E+10 p/s and 1.10E+11 p/s and 6.31E+10 p/s and 6.43E+10 p/s and 6.13E+10 p/s and 4.70E+10 p/s and 4.84E+10 p/s
Total Flux minus ROI 1 (background) (Day 34, individual ROI (one per animal), background-subtracted, listed as ABT-199): 6.39E+10 p/s and 5.69E+10 p/s and 4.58E+10 p/s and 3.00E+11 p/s and 1.05E+11 p/s and 1.25E+11 p/s and 8.20E+10 p/s and 1.20E+11 p/s and 6.30E+10 p/s
Total Flux (Day 34, individual ROI (one per animal, ROI 2-10), raw value, listed as ABT-199): 6.47E+10 p/s and 5.77E+10 p/s and 4.66E+10 p/s and 3.01E+11 p/s and 1.06E+11 p/s and 1.26E+11 p/s and 8.28E+10 p/s and 1.21E+11 p/s and 6.39E+10 p/s
Total Flux minus ROI 1 (background) (Day 38, individual ROI (one per animal), background-subtracted, listed as ABT-199): 3.53E+10 p/s and 1.45E+11 p/s and 3.00E+11 p/s and 1.27E+11 p/s and 1.37E+11 p/s and 1.69E+11 p/s and 9.41E+10 p/s and 1.57E+11 p/s
Total Flux (Day 38, individual ROI (one per animal, ROI 2-10), raw value, listed as ABT-199): 3.60E+10 p/s and 1.46E+11 p/s and 3.01E+11 p/s and 1.27E+11 p/s and 1.38E+11 p/s and 1.69E+11 p/s and 9.48E+10 p/s and 1.57E+11 p/s
Total Flux minus ROI 1 (background) (Day 41, individual ROI (one per animal), background-subtracted, listed as ABT-199): 2.65E+11 p/s and 1.77E+09 p/s and 1.55E+11 p/s and 4.70E+11 p/s and -1.25E+08 p/s and 2.06E+11 p/s and 5.84E+11 p/s and 2.05E+08 p/s and 1.78E+11 p/s
Total Flux (Day 41, individual ROI (one per animal, ROI 2-10), raw value, listed as ABT-199): 2.66E+11 p/s and 3.30E+09 p/s and 1.57E+11 p/s and 4.71E+11 p/s and 1.41E+09 p/s and 2.08E+11 p/s and 5.85E+11 p/s and 1.74E+09 p/s and 1.80E+11 p/s
Total Flux minus ROI 1 (background) (Day 45, individual ROI (one per animal), background-subtracted, listed as ABT-199): -3.57E+08 p/s and -4.07E+08 p/s and -2.51E+08 p/s and -8.01E+08 p/s and 2.76E+08 p/s and 4.15E+11 p/s and -2.10E+07 p/s and 1.27E+08 p/s and 8.71E+11 p/s
Total Flux (Day 45, individual ROI (one per animal, ROI 2-10), raw value, listed as ABT-199): 9.69E+08 p/s and 9.19E+08 p/s and 1.08E+09 p/s and 5.25E+08 p/s and 1.60E+09 p/s and 4.16E+11 p/s and 1.30E+09 p/s and 1.45E+09 p/s and 8.72E+11 p/s
Total Flux minus ROI 1 (background) (Day 52, individual ROI (one per animal), background-subtracted, listed as ABT-199): 4.43E+11 p/s and 2.98E+10 p/s
